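All cell lines were grown in 96-well plates and treated with compound for 48 hours. At the TGI there is no net growth.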

Results on three compounds are retold here after PubChem BioAssay (NCI).

Some test systems named below: HOP-62 NSCLC; SF-539 CNS; MOLT-4 leukemia; K-562 leukemia; OVCAR-5 ovarian; OVCAR-8 ovarian; 786-0 renal; IGROV1 ovarian; BT-549 breast; SW-620 colon; SK-MEL-28 melanoma; MALME-3M melanoma; LOX IMVI melanoma; SK-MEL-2 melanoma; OVCAR-3 ovarian; HOP-92 NSCLC; T-47D breast; HL-60(TB) leukemia; NCI-H226 lung; NCI/ADR-RES ovarian.
Assay in all cases: inhibition of tumour cell growth, NCI panel, 48 h

With `O=S(=O)(O)c1ccc2c(N=Nc3ccc(S(=O)(=O)O)c4ccccc34)c(O)c(S(=O)(=O)O)cc2c1`, the TGI with HOP-62 NSCLC, in the assay with SF-539 CNS, in the assay with MOLT-4 leukemia, in the assay on K-562 leukemia, in the assay on OVCAR-5 ovarian and in the assay with OVCAR-8 ovarian was above 100 µM in each case. The TGI with 786-0 renal, in the assay on IGROV1 ovarian, with BT-549 breast, with SW-620 colon, in the assay on SK-MEL-28 melanoma and with MALME-3M melanoma was above 100 µM each time. Further, the TGI in the assay on LOX IMVI melanoma, in the assay with SK-MEL-2 melanoma, in the assay with OVCAR-3 ovarian, in the assay with HOP-92 NSCLC, in the assay with T-47D breast and in the assay on HL-60(TB) leukemia was above 100 µM in each case. In addition, the TGI in the assay on NCI-H226 lung and with NCI/ADR-RES ovarian was above 100 µM throughout.

In the case of `COc1ccc2c(c1)C(OC)C1c3c(cc4c(c3-2)OCO4)CCN1C` (stereo not given), the TGI in the assay on HOP-62 NSCLC is 8.34 µM; in the assay with SF-539 CNS it was 8.38 µM; with MOLT-4 leukemia, above 51.7 µM; in the assay with K-562 leukemia, above 57.3 µM; in the assay with OVCAR-5 ovarian, 16.8 µM; in the assay with OVCAR-8 ovarian it was 13.9 µM. The TGI with 786-0 renal is above 40.9 µM; with IGROV1 ovarian, 14.8 µM; in the assay with BT-549 breast it was 8.48 µM; in the assay with SW-620 colon it was 18.7 µM; with SK-MEL-28 melanoma, 19.8 µM; in the assay on MALME-3M melanoma, 3.97 µM. Further, the TGI is above 32 µM in the assay on LOX IMVI melanoma; 7.9 µM with SK-MEL-2 melanoma; 25.1 µM with OVCAR-3 ovarian; 11.8 µM with HOP-92 NSCLC; above 63.7 µM in the assay on T-47D breast; above 20.6 µM in the assay on HL-60(TB) leukemia. For the same compound, the TGI in the assay with NCI-H226 lung was 9.09 µM; with NCI/ADR-RES ovarian, 7.45 µM.

Consider `CN(C)c1ccc(/C=N/c2nc3cc4sc(/N=C/c5ccc(N(C)C)cc5)nc4cc3s2)cc1`, for which the TGI in the assay on HOP-62 NSCLC, in the assay with SF-539 CNS, in the assay on MOLT-4 leukemia, in the assay with K-562 leukemia, with OVCAR-5 ovarian and in the assay on OVCAR-8 ovarian was above 100 µM throughout. Also, the TGI in the assay on 786-0 renal, with IGROV1 ovarian, in the assay with BT-549 breast, in the assay with SW-620 colon, with SK-MEL-28 melanoma and in the assay with MALME-3M melanoma was above 100 µM throughout. The TGI in the assay with LOX IMVI melanoma, in the assay with SK-MEL-2 melanoma, with OVCAR-3 ovarian, in the assay on HOP-92 NSCLC, in the assay with T-47D breast and in the assay on HL-60(TB) leukemia was above 100 µM each time. Further, the TGI in the assay with NCI-H226 lung and in the assay on NCI/ADR-RES ovarian was above 100 µM throughout.
